Values joined by “and” are separate entries in the source; they are usually repeats but may differ in a detail not shown here. Equal entries are not always repeated. Each block holds one compound with its values, some of them ahead of it.
Assay: Anticancer human tumor 997537-175-T-J1-PDC patient-derived colon adenocarcinoma cell line growth inhibition [POLQ]
Conditions: 997537-175-T-J1-PDC complex spheroid viability, combination with POLQ inhibitors; for viability, T/C: stronger effect = lower value
Procedure: Multicellular complex tumor spheroid response to Polymerase (POL) inhibitors (novobiocin, ART-558, RP6685) in combination with a variety of drugs and investigational agents in selected tumor cell lines
The POL inhibitors (novobiocin, ART-558, and RP6685) were evaluated both individually and in combination with standard of care and investigational anticancer small molecules within a complex spheroid model of solid tumors. . Complex spheroids include a stromal component modeled by human endothelial cells (HUVEC) and fibroblasts modeled by human mesenchymal stem cells (MSCs). The concentration ranges selected for each drug and investigational agent were based upon clinically achievable concentrations if the clinical Cmax of the agent was known.
Compounds. The drugs and investigational agents: novobiocin (NSC847541), ART-558 (NSC835418), RP-6685 (NSC848927), peposertib (NSC802822), ceralasertib (NSC780249), elimusertib (NSC800525), camonsertib (NSC841442), AZD-1390 (NSC803789), olaparib (NSC753686), talazoparib (NSC767125), rucaparib (NSC756644), sotorasib (NSC818433), MRTX-1133 (NSC836407), SN-38 (NSC673596), topotecan (NSC609699), epotoside (NSC141540), doxorubicin (NSC123127), gemcitabine (NSC613327), 5-fluorouracil (NSC19893), paclitaxel (NSC125973), vemurafenib (NSC761431), MSA-2 (NSC828583), SN-011 (NSC837082), adavosertib (NSC754352), prexasertib (NSC758257), carboplatin (NSC241240) and oxaliplatin (NSC266046), were obtained from the National Cancer Institute (NCI) Developmental Therapeutics Program Chemical Repository (21). The FDA-approved anticancer drug set is available from the Developmental Therapeutics Program at https://dtp.cancer.gov/organization/dscb/obtaining/. […] The stock solutions were prepared in dimethyl sulfoxide (DMSO, Sigma-Aldrich, St. Louis, MO, cat. D2650), except for the platinum compounds which were prepared in saline (Quality Biological, Gaithersburg, MD, cat. 114-055-101), at 800-fold the tested concentration and stored at -70 degrees C prior to their use. All drugs and investigational agents were tested over a range starting from a high concentration at or near the clinical Cmax and decreasing in half-log increments. If the clinical Cmax for an agent had not been determined, the highest concentration tested was 10 microM, except for SN-38, which was tested at a high concentration of 1 microM.
Cell Culture. All cells were maintained in an incubator at 37 degrees C and 5% CO2 with 95% humidity. The PDC lines were cultured according to standard operating procedures established by the NCI PDMR (https://pdmr.cancer.gov). Table 3 of the manuscript, lists the cell lines along with the number of the three cell types plated to form the mct-spheroids and media for tumor cell growth. After thawing, all PDC lines, except 997537-175-T-J1-PDC and 415267-285-R-J2-PDC, were cultured in Matrigel-coated flasks prepared with a working solution of 1X Ham's F-12 nutrient mix, without supplementation (Thermo Fisher Scientific, cat. 11765054), 100 U/mL penicillin-streptomycin (Thermo Fisher Scientific, cat. 15140122), and 2.5% Matrigel (Corning Inc., Corning, NY, cat. 354248) for the first three passages. The two PDC lines 997537-175-T-J1-PDC and 415267-285-R-J2-PDC were cultured on uncoated flasks. The 857933-349-R-J2-PDC line was cultured in 6C/Colon 1B media containing advanced DMEM/F-12 (Thermo Fisher Scientific, cat. 12634028), 10 mM HEPES (Thermo Fisher Scientific, cat. 15630080), 1X GlutaMAX supplement (Thermo Fisher Scientific, cat. 35050061), 0.1 mg/mL primocin (InvivoGen, San Diego, CA, cat. ant-pm-2), 10% defined fetal bovine serum, heat inactivated (HyClone Laboratories Inc., Logan, UT, cat. SH30070.03HI), 50% L-WRN conditioned media (ATCC, cat. CRL-3276), 1.25 mM N-Acetyl-L-cysteine (Sigma-Aldrich, cat. A9165), 10 mM nicotinamide (Sigma-Aldrich, cat. N0636), 1X B-27 supplement (Thermo Fisher Scientific, cat. 17504044), 1X N-2 supplement (Thermo Fisher Scientific, cat. […]
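Note: luminescence signal used as a surrogate for viable cells; spheroids exposed to drugs for seven days before readout.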

- IC50 (compound alone, run of 11/27/2023): > 10 µM
- IC50 (compound alone, run of 12/05/2023): > 10 µM
SMILES: Cc1cccc(N(C)C(=O)C2C(O)CCN2c2nc(C)cc(C(F)(F)F)c2C#N)c1 (stereo unspecified)
- viability, T/C (compound 0.0316 µM): 97.6% [middle of 13 runs]
- viability, T/C (compound 0.1 µM): 98.6% [middle of 13 runs]
- viability, T/C (compound 0.316 µM): 97.3% [middle of 13 runs]
- viability, T/C (compound 1 µM): 101% [middle of 13 runs]
- viability, T/C (compound 3.16 µM): 101% [middle of 13 runs]
- viability, T/C (compound 10 µM): 96.9% [middle of 13 runs]

SMILES: COc1cccc2c1C(=O)c1c(O)c3c(c(O)c1C2=O)CC(O)(C(=O)CO)CC3OC1CC(N)C(O)C(C)O1 (stereo unspecified)
- viability, T/C (compound 0.0316 µM): 91.6% and 101% and 113%
- viability, T/C (compound 0.1 µM): 81.9% and 97% and 103%
- viability, T/C (compound 0.316 µM): 87.3% and 68.5% and 110%
- viability, T/C (compound 1 µM): 93.9% and 90% and 81.8%
- viability, T/C (compound 3.16 µM): 57.7% and 37.8% and 27.6%
- viability, T/C (compound 10 µM): 8.92% and 9.36% and 7.86%
- IC50 (curve of compound): 3.79 µM and 2.41 µM and 1.97 µM

SMILES: Nc1ccn(C2OC(CO)C(O)C2(F)F)c(=O)n1 (stereo unspecified)
- viability, T/C (compound 0.0316 µM): 104% (2×) and 98.4%
- viability, T/C (compound 0.1 µM): 93.9% and 111% and 97.5%
- viability, T/C (compound 0.316 µM): 85.7% and 84.1% and 75%
- viability, T/C (compound 1 µM): 69.6% and 75.9% and 84.9%
- viability, T/C (compound 3.16 µM): 80.9% and 85.4% and 87.5%
- viability, T/C (compound 10 µM): 85% and 80% and 70.2%
- IC50 (curve of compound): > 10 µM

SMILES: O=c1[nH]cc(F)c(=O)[nH]1 + Cc1cccc(N(C)C(=O)C2C(O)CCN2c2nc(C)cc(C(F)(F)F)c2C#N)c1
- IC50 (curve of first compound, second compound 0.0316 µM): > 10 µM
- IC50 (curve of first compound, second compound 0.1 µM): > 10 µM
- IC50 (curve of first compound, second compound 0.316 µM): > 10 µM
- IC50 (curve of first compound, second compound 1 µM): > 10 µM
- IC50 (curve of first compound, second compound 3.16 µM): > 10 µM
- IC50 (curve of first compound, second compound 10 µM): > 10 µM
- viability, T/C (second compound 0.0316 µM, first compound 0.0316 µM): 84.2%
- viability, T/C (second compound 0.0316 µM, first compound 0.1 µM): 109%
- viability, T/C (second compound 0.0316 µM, first compound 0.316 µM): 95.8%
- viability, T/C (second compound 0.0316 µM, first compound 1 µM): 96.7%
- viability, T/C (second compound 0.0316 µM, first compound 3.16 µM): 94.6%
- viability, T/C (second compound 0.0316 µM, first compound 10 µM): 79.7%
- viability, T/C (second compound 0.1 µM, first compound 0.0316 µM): 95.8%
- viability, T/C (second compound 0.1 µM, first compound 0.1 µM): 87.7%
- viability, T/C (second compound 0.1 µM, first compound 0.316 µM): 103%
- viability, T/C (second compound 0.1 µM, first compound 1 µM): 108%
- viability, T/C (second compound 0.1 µM, first compound 3.16 µM): 103%
- viability, T/C (second compound 0.1 µM, first compound 10 µM): 98.4%
- viability, T/C (second compound 0.316 µM, first compound 0.0316 µM): 95%
- viability, T/C (second compound 0.316 µM, first compound 0.1 µM): 96%
- viability, T/C (second compound 0.316 µM, first compound 0.316 µM): 112%
- viability, T/C (second compound 0.316 µM, first compound 1 µM): 98.4%
- viability, T/C (second compound 0.316 µM, first compound 3.16 µM): 94.9%
- viability, T/C (second compound 0.316 µM, first compound 10 µM): 83.3%
- viability, T/C (second compound 1 µM, first compound 0.0316 µM): 104%
- viability, T/C (second compound 1 µM, first compound 0.1 µM): 82.8%
- viability, T/C (second compound 1 µM, first compound 0.316 µM): 94.7%
- viability, T/C (second compound 1 µM, first compound 1 µM): 87.5%
- viability, T/C (second compound 1 µM, first compound 3.16 µM): 87.3%
- viability, T/C (second compound 1 µM, first compound 10 µM): 91.5%
- viability, T/C (second compound 3.16 µM, first compound 0.0316 µM): 95%
- viability, T/C (second compound 3.16 µM, first compound 0.1 µM): 99%
- viability, T/C (second compound 3.16 µM, first compound 0.316 µM): 98.8%
- viability, T/C (second compound 3.16 µM, first compound 1 µM): 87.8%
- viability, T/C (second compound 3.16 µM, first compound 3.16 µM): 95.3%
- viability, T/C (second compound 3.16 µM, first compound 10 µM): 79.6%
- viability, T/C (second compound 10 µM, first compound 0.0316 µM): 93.1%
- viability, T/C (second compound 10 µM, first compound 0.1 µM): 96.4%
- viability, T/C (second compound 10 µM, first compound 0.316 µM): 103%
- viability, T/C (second compound 10 µM, first compound 1 µM): 95.1%
- viability, T/C (second compound 10 µM, first compound 3.16 µM): 89.8%
- viability, T/C (second compound 10 µM, first compound 10 µM): 71.8%

SMILES: COc1cc(C2c3cc4c(cc3C(OC3OC5COC(C)OC5C(O)C3O)C3COC(=O)C23)OCO4)cc(OC)c1O (stereo unspecified)
- viability, T/C (compound 0.0316 µM): 81.2% and 92.1% and 89.8%
- viability, T/C (compound 0.1 µM): 90% and 102% and 100%
- viability, T/C (compound 0.316 µM): 86.5% and 100% and 114%
- viability, T/C (compound 1 µM): 102% and 92.9% and 99.7%
- viability, T/C (compound 3.16 µM): 92.7% and 81% and 88.9%
- viability, T/C (compound 10 µM): 76.3% and 68.8% and 51.7%
- IC50 (curve of compound): > 10 µM
